Like-named read-outs stand apart in the source and are kept apart here.
System: Hep3B cells (hepatocellular carcinoma cell line)
Experiment: In vitro MTS cell viability assay (NCI-60 methodology), Hep3B
Type: cell-based
Conditions: Homo sapiens, 48 h, 2 days drug incubation, 50% reduction vs time zero, read-out: Hep3B LC50
How it was run: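 Following NCI-60 method, MTS viability of Hep3B measured 24 h after plating (time zero) and after a further 2-day exposure to five concentrations (2-fold series). LC50 defined where [(Ti−Tz)/Tz]×100 = −50.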

With `CC(C)(C)C(=O)N1CC[C@H](n2ncc3c(NC(=O)c4ccc([N+](=O)[O-])s4)nc(-c4ccc(F)nc4)nc32)C1` [Compound 8-4, (S)—N-(6-(6-fluoropyridin-3-yl)-1-(1-pivaloylpyrrolidin-3-yl)-1H-pyrazolo[3,4-d]pyrimidin-4-yl)-5-nitrothiophene-2-carboxamide] the LC50 (Table 8, MTS) was 1490 nM.
For `CCOCCOCCOC(=O)N1CCC(n2ncc3c(NC(=O)c4ccc([N+](=O)[O-])s4)nc(-c4ccc(Cl)cc4)nc32)CC1` [Compound 9-11, 2-(2-ethoxyethoxy)ethyl 4-(6-(4-chlorophenyl)-4-(5-nitrothiophene-2-carboxamido)-1H-pyrazolo[3,4-d]pyrimidin-1-yl)piperidine-1-carboxylate], the LC50 (Table 9, MTS) was greater than 1250 nM.
With `CCOCCOCCOc1ccc(-c2nc(NC(=O)c3ccc([N+](=O)[O-])s3)c3cnn(C4CCCCC4)c3n2)cn1` [Compound 10-53, N-(1-cyclohexyl-6-(6-(2-(2-ethoxyethoxy)ethoxy)pyridin-3-yl)-1H-pyrazolo[3,4-d]pyrimidin-4-yl)-5-nitrothiophene-2-carboxamide] the LC50 (Table 10, MTS) was 1230 nM.
`O=C(Nc1nc(-c2ccc(Cl)cc2)nc2c1cnn2C1CCC(F)(F)CC1)c1ccc([N+](=O)[O-])s1` [Compound 10-56, N-(6-(4-chlorophenyl)-1-(4,4-difluorocyclohexyl)-1H-pyrazolo[3,4,d]pyrimidin-4-yl)-5-nitrothiophene-2-carboxamide] showed an LC50 (Table 10, MTS) of 770 nM.
`CC1(C)CCC(n2ncc3c(NC(=O)c4ccc([N+](=O)[O-])s4)nc(-c4ccc(Cl)cc4F)nc32)CC1` [Compound 10-65, N-(6-(4-chloro-2-fluorophenyl)-1-(4,4-dimethylcyclohexyl)-1H-pyrazolo[3,4-d]pyrimidin-4-yl)-5-nitrothiophene-2-carboxamide] was tested, and the LC50 (Table 10, MTS) was 580 nM.
Molecule `O=C(Nc1nc(-c2ccco2)nc2c1cnn2C1CCCCC1)c1ccc([N+](=O)[O-])s1` [Compound 10-4, N-(1-cyclohexyl-6-(furan-2-yl)-1H-pyrazolo[3,4-d]pyrimidin-4-yl)-5-nitrothiophene-2-carboxamide] has an LC50 (Table 10, MTS) of 1190 nM.
`COc1ccc(-c2nc(NC(=O)c3ccc([N+](=O)[O-])s3)c3cnn(-c4ccccc4)c3n2)cc1` [Compound 5-36, N-(6-(4-methoxyphenyl)-1-phenyl-1H-pyrazolo[3,4-d]pyrimidin-4-yl)-5-nitrothiophene-2-carboxamide] was tested, and the LC50 (Table 5, MTS) was 600 nM.
`CC(C)(C)c1ccc(-c2nc(NC(=O)c3ccc([N+](=O)[O-])s3)c3cnn(-c4ccc(OC(F)(F)F)cc4)c3n2)cc1` [Compound 6-86, N-(6-(4-(tert-butyl)phenyl)-1-(4-(trifluoromethoxy)phenyl)-1H-pyrazolo[3,4-d]pyrimidin-4-yl)-5-nitrothiophene-2-carboxamide] was tested, and the LC50 (Table 6, MTS) was 3460 nM.
`COC(=O)[C@@H]1CCCN1c1nc(NC(=O)c2ccc([N+](=O)[O-])s2)c2cnn(-c3cccc(Cl)c3)c2n1` [Compound 6-32, methyl (1-(3-chlorophenyl)-4-(5-nitrothiophene-2-carboxamido)-1H-pyrazolo[3,4-d]pyrimidin-6-yl)-L-prolinate] was tested, and the LC50 (Table 6, MTS) was 560 nM.
`CC(C)(C)c1ccc(-c2nc(NC(=O)c3ccc([N+](=O)[O-])s3)c3cnn(C4CCCCC4)c3n2)cc1` [Compound 10-35, N-(6-(4-(tert-butyl)phenyl)-1-cyclohexyl-1H-pyrazolo[3,4,d]pyrimidin-4-yl)-5-nitrothiophene-2-carboxamide] showed an LC50 (Table 10, MTS) of 1330 nM.
Molecule `Cn1ncc2c(NC(=O)c3ccc([N+](=O)[O-])s3)nc(-c3cccc(OC(F)(F)F)c3)nc21` [Compound 1-6, N-(1-methyl-6-(3-(trifluoromethoxy)phenyl)-1H-pyrazolo[3,4-d]pyrimidin-4-yl)-5-nitrothiophene-2-carboxamide] has an LC50 (Table 1, MTS) of 1470 nM.
In the case of `Cn1ncc2c(NC(=O)c3ccc([N+](=O)[O-])s3)nc(-c3ccccc3OC(F)(F)F)nc21` [Compound 1-8, N-(1-methyl-6-(2-(trifluoromethoxy)phenyl)-1H-pyrazolo[3,4-d]pyrimidin-4-yl)-5-nitrothiophene-2-carboxamide], the LC50 (Table 1, MTS) is reported as 2530 nM.
For `O=C(Nc1nc(-c2cncnc2)nc2c1cnn2-c1ccccc1)c1ccc([N+](=O)[O-])s1` [Compound 5-24, 5-nitro-N-(1-phenyl-6-(pyrimidin-5-yl)-1H-pyrazolo[3,4-d]pyrimidin-4-yl)thiophene-2-carboxamide], the LC50 (Table 5, MTS) was 960 nM.
Work on `O=C(Nc1nc(N2CCC[C@H]2CO)nc2c1cnn2-c1cccc(Cl)c1)c1ccc([N+](=O)[O-])s1` [Compound 6-31, (S)—N-(1-(3-chlorophenyl)-6(2-(hydroxymethyl)pyrrolidin-1-yl)-1H-pyrazolo[3,4-d]pyrmidin-4-yl)-5-nitrothiophene-2-carboxamide] yielded an LC50 (Table 6, MTS) greater than 1250 nM.
`CCOC(=O)N1CCC(n2ncc3c(NC(=O)c4ccc([N+](=O)[O-])s4)nc(-c4ccc(F)nc4)nc32)CC1` [Compound 9-2, ethyl 4-(6-(6-fluoropyridin-3-yl)-4-(5-nitrothiophene-2-carboxamide)-1H-pyrazolo [3,4-d]pyrimidin-1-yl)piperidine-1-carboxylate] gave an LC50 (Table 9, MTS) greater than 5000 nM.
In the case of `COC(=O)c1ccc(-c2nc(NC(=O)c3ccc([N+](=O)[O-])s3)c3cnn(C4CC(C)CC(C)C4)c3n2)cc1` (centres unmarked) [Compound 10-71, methyl 4-(1-(3,5-dimethylcyclohexyl)-4-(5-nitrothiophene-2-carboxamido)-1H-pyrazolo[3,4-d]pyrimidin-6-yl)benzoate], the LC50 (Table 10, MTS) is reported as 690 nM.
In the case of `O=C(Nc1nc(-c2ccccc2F)nc2c1cnn2-c1ccccc1)c1ccc([N+](=O)[O-])s1` [Compound 5-25, N-(6-(2-fluorophenyl)-1-phenyl-1H-pyrazolo[3,4-d]pyrimidin-4-yl)-5-nitrothiophene-2-carboxamide], the LC50 (Table 5, MTS) is reported as 460 nM.
`Cc1csc2c(NC(=O)c3ccc([N+](=O)[O-])s3)nc(-c3ccc(F)cc3)nc12` [Compound 4-8] showed an LC50 (Table 4, MTS) of 1700 nM.
`O=C(Nc1nc(Oc2ccccc2)nc2c1cnn2-c1ccccc1)c1ccc([N+](=O)[O-])s1` [Compound 5-13, 5-nitro-N-(6-phenoxy-1-phenyl-1H-pyrazolo[3,4-d]pyrimidin-4-yl)thiophene-2-carboxamide] showed an LC50 (Table 5, MTS) greater than 5000 nM.
With `CC1(C)CCC(n2ncc3c(NC(=O)c4ccc([N+](=O)[O-])s4)nc(-c4ccc5c(c4)OCO5)nc32)CC1` [Compound 10-66, N-(6-(benzo[d][1,3]dioxol-5-yl)-1-(4,4-dimethylcyclohexyl)-1H-pyrazolo[3,4-d]pyrimidin-4-yl)-5-nitrothiophene-2-carboxamide] the LC50 (Table 10, MTS) was 610 nM.
For `O=C(Nc1nc(N2CCC[C@H]2CO)nc2c1cnn2-c1ccc(Cl)c(Cl)c1)c1ccc([N+](=O)[O-])s1` [Compound 7-11, (S)—N-(1-(3,4-dichlorophenyl)-6-(2-(hydroxymethyl)pyrrolidin-1-yl)-1H-pyrazolo[3,4-d]pyrimidin-4-yl)-5-nitrothiophene-2-carboxamide], the LC50 (Table 7, MTS) was 510 nM.
In the case of `C=CC(=O)N1CC[C@H](n2ncc3c(NC(=O)c4ccc([N+](=O)[O-])s4)nc(-c4ccc(F)nc4)nc32)C1` [Compound 8-3, (S)—N-(1-(1-acryloylpyrrolidin-3-yl)-6-(6-fluoropyridin-3-yl)-1H-pyrazolo[3,4-d]pyrimidin-4-yl)-5-nitrothiophene-2-carboxamide], the LC50 (Table 8, MTS) is reported as greater than 3000 nM.
With `O=C(Nc1nc(-c2ccc(F)cc2)nc2c1cnn2-c1ccc(Cl)cc1)c1ccc([N+](=O)[O-])s1` [Compound 6-48, N-(1-(4-chlorophenyl)-6-(4-fluorophenyl)-1H-pyrazolo[3,4-d]pyrimidin-4-yl)-5-nitrothiophene-2-carboxamide] the LC50 (Table 6, MTS) was 180 nM.
